The values that follow come from US11866704B2, “Nucleic acid molecules and uses thereof” (Macau University of Science and Technology, priority 2020, dated 2024).

The IC50 is the concentration at which inhibition is half-maximal.

[s4U] = 4-thiouridine base; m = 2'-O-methyl; r = 2'-OH (RNA)

The test system of data set [1] is LoVo colorectal adenocarcinoma cell line. The experiment in a line: MTT cytotoxicity assay on LoVo cells. The conditions noted are these: for effect on growth and proliferation (FIGS. 7A, 7B): 6.25-100 nM; for IC50: MTT, 48 h treatment. Format: cell-based. On the procedure:
(§1) HCT-8, fluorouracil-resistant HCT-8, fluorouracil-resistant LoVo cell lines were cultured in RPMI Medium 1640 medium containing 10% FBS and 1% penicillin/streptomycin. LoVo cell line was cultured in F-12K medium containing 10% FBS and 1% penicillin/streptomycin. All cell lines above were cultured at humidified atmosphere containing 5% CO2 at 37° C.
(§2) In the cytotoxicity assay, exponentially growing cells of each cancer cell line were plated in 96-well microplate at a density of 5000 cells per well in 100 μL of culture medium and allowed to adhere for 24 h before treatment. Serial concentrations of RNA molecules obtained in Example 1 to 4 in a mixture containing a gene delivery carrier, i.e. Lipofectamine™ RNAiMAX Transfection Reagent (Thermo Fisher Scientific, U.S.A.) were then added to the cells. After treated for 48 h, MTT solution (50 μL per well, 1 mg/mL solution) was added to each well and incubated for 4 h at 37° C. Subsequently, 200 μL dimethyl sulfoxide (DMSO) were added and the optical densities of the resulting solutions were calorimetrically determined at 570 nm using a SpectraMax 190 microplate reader (Molecular Devices, Sunnyvale, CA, U.S.A). Dose-response curves were obtained, and the IC50 values were calculated by GraphPad Prism 5 (GraphPad, La Jolla, CA, USA). Each experiment was carried out for three times. IC50 results were expressed as means±standard deviation.
In general terms: Tetrazolium dyes change colour on reduction, which living cells bring about.

In data set [2] the test system is LoVo cells. Description: Clonogenic assay on LoVo cells. Format: cell-based. The conditions noted are these: 25 nM; for colony number, inhibition of proliferation (FIG. 8B): vs control group. On the procedure:
as §1
(§3) In the clonogenic assay, HCT-8 or LoVo cells were plated in 6-well microplate at a density of 1000 cells per well in 2 mL of culture medium and allowed to adhere for 24 h before treatment. Single concentration of RNA molecules obtained in Example 1 to 4 in a mixture containing a gene delivery carrier, i.e. Lipofectamine™ RNAiMAX Transfection Reagent (Thermo Fisher Scientific, U.S.A.) were then added to the cells. After treated for 48 h, discarded the drug solutions and replaced with 2 mL of fresh culture medium. After culture 14 days, discarded the culture medium and the cells were fixated with 4% paraformaldehyde fix solution for 20 min, followed by stained with crystal violet for 10 min and then washed by deionized water. The 6-well microplate was photographed and the number of colonies with more than 50 individual cells were counted using ImageJ software (U.S.A.). Each experiment was carried out for three times. Results were expressed as means±standard deviation.

The subject of data set [3] is HCT-8 cells. Description: Clonogenic assay on HCT-8 cells. The data set is classed as cell-based, human. The conditions noted are these: 50 nM; for colony number, inhibition of proliferation (FIG. 8A): vs control group. On the procedure:
as §1, §3

The test system of data set [4] is LoVo cells. Description: Wound-healing assay on LoVo cells. The data set is classed as cell-based. The following applies: 25 nM; for wound area, inhibition of migration (FIG. 9B): vs control group. On the procedure:
as §1
as §3, with “wound-healing” for “clonogenic”, “500,000” for “1000”, “[…]” for “Single concentration”, “[…] A 1 mL bacteria-free pipette tip was used to make a cross-scratch at the bottom of 6-well microplate. The cells in the scratch were washed away using phosphor buffer solution and the 6-well microplate was photographed under a microscope. Single concentration of RNA molecules obtained in Example 1 to 4 in a mixture containing a gene delivery carrier, i.e. Lipofectamine™ RNAiMAX Transfection Reagent (Thermo Fisher Scientific, U.S.A.) were then added to the cells. The cells were then photographed under microscope at 24 and 48 h. ImageJ software was applied to quantify the area of wound created. Each experiment was carried out for three times. Results were expressed as means±standard deviation.” for “deviation.”

Data set [5] relates to HCT-8 human ileocecal colorectal adenocarcinoma cell line. Description: MTT cytotoxicity assay on HCT-8 cells. Format: cell-based. The conditions noted are these: HCT-8; for effect on growth and proliferation (FIGS. 7A, 7B): 6.25-100 nM; for IC50: MTT, 48 h treatment. As to the method: as §1, §2
Data set [6] concerns LoVo/5-FU (5-FU-resistant strain of LoVo). Description: MTT cytotoxicity assay on LoVo/5-FU cells. The following applies: for effect on growth and proliferation (FIGS. 7A, 7B): 6.25-100 nM; for IC50: MTT, 48 h treatment. Format: cell-based. On the procedure:
as §1, §2

Data set [7] concerns HCT-8/5-FU (5-FU-resistant strain of HCT-8). The experiment in a line: MTT cytotoxicity assay on HCT-8/5-FU cells. Format: cell-based, human. The conditions noted are these: for effect on growth and proliferation (FIGS. 7A, 7B): 6.25-100 nM; for IC50: MTT, 48 h treatment. On the procedure:
as §1, §2

The test system of data set [8] is HCT-8 cells. Description: Wound-healing assay on HCT-8 cells. Format: cell-based, human. The following applies: 50 nM; for wound area, inhibition of migration (FIG. 9A): vs control group. As to the method: as §1
as §3, with “wound-healing” for “clonogenic”, “500,000” for “1000”, “[…]” for “Single concentration”, “[…] A 1 mL bacteria-free pipette tip was used to make a cross-scratch at the bottom of 6-well microplate. The cells in the scratch were washed away using phosphor buffer solution and the 6-well microplate was photographed under a microscope. Single concentration of RNA molecules obtained in Example 1 to 4 in a mixture containing a gene delivery carrier, i.e. Lipofectamine™ RNAiMAX Transfection Reagent (Thermo Fisher Scientific, U.S.A.) were then added to the cells. The cells were then photographed under microscope at 24 and 48 h. ImageJ software was applied to quantify the area of wound created. Each experiment was carried out for three times. Results were expressed as means±standard deviation.” for “deviation.”

[9] abbreviates: among EC83 mimic and modified mimics.

“EC83-M2 mimic: modified EC83 dsRNA; antisense SEQ ID NO: 2 GCCGAAGUGGCGAAAUC[Gm]GUAG, sense SEQ ID NO: 5 CUACCGAUUUCGCCACUUCGGC (antisense GCCGAAGUGGCGAAAUCGGUAG; antisense: sugars from the 5' end r17 m1 r4, backbone not given here; sense: RNA, backbone not given here; tRNA-derived fragment mimic duplex)”: the “effect on growth and proliferation (FIGS. 7A, 7B)” value was “dose-dependent effect on inhibiting the growth and proliferation” in data set [1]; “dose-dependent effect on inhibiting the growth and proliferation” in data set [5]; “dose-dependent effect on inhibiting the growth and proliferation” in data set [6]; “dose-dependent effect on inhibiting the growth and proliferation” in data set [7]. Also, the IC50 in data set [1] is 19.9 nM; in data set [5], 58.9 nM; in data set [6], 18.3 nM; in data set [7], 48.8 nM. Also, in data set [2] (setting [9]), the “anti-proliferation activity ranking (FIG. 8B)” value was “strongest anti-proliferation activity”. Moreover, in data set [2], the “colony number, inhibition of proliferation (FIG. 8B)” value is reported as “significantly inhibit the proliferation”. Besides, in data set [3] (setting [9]), the “anti-proliferation activity ranking (FIG. 8A)” value is “strongest anti-proliferation activity”. Besides, the “colony number, inhibition of proliferation (FIG. 8A)” value in data set [3] is “significantly inhibit the proliferation”. Also, the “wound healing inhibition ranking (FIG. 9B)” value in data set [4] (setting [9]) is reported as “strongest inhibition effect on the wound healing”. Besides, the “wound area, inhibition of migration (FIG. 9B)” value in data set [4] is “significantly inhibit the migration”. The “wound healing inhibition ranking (FIG. 9A)” value in data set [8] (setting [9]) is recorded as “strongest inhibition effect on the wound healing”. For the same substance, in data set [8], the “wound area, inhibition of migration (FIG. 9A)” value was “significantly inhibit the migration”.

Take “EC83-M3 mimic: modified EC83 dsRNA; antisense SEQ ID NO: 3 GCCGAAG[s^4U]GGCGAAAUC[Gm]GUAG, sense SEQ ID NO: 6 CUACCGAUUUCGCCACUUCGGC (antisense GCCGAAGUGGCGAAAUCGGUAG; antisense: sugars from the 5' end r17 m1 r4, [s4U] at 8, backbone not given here; sense: RNA, backbone not given here; tRNA-derived fragment mimic duplex)”: the “effect on growth and proliferation (FIGS. 7A, 7B)” value in data set [1] is “dose-dependent effect on inhibiting the growth and proliferation”; in data set [5], “dose-dependent effect on inhibiting the growth and proliferation”; in data set [6] it was “dose-dependent effect on inhibiting the growth and proliferation”; in data set [7], “dose-dependent effect on inhibiting the growth and proliferation”. In addition, the IC50 in data set [1] was found to be 24.1 nM; in data set [5] it was 74.5 nM; in data set [6] it was 23 nM; in data set [7] it was 72.2 nM. For the same substance, the “colony number, inhibition of proliferation (FIG. 8B)” value in data set [2] is recorded as “significantly inhibit the proliferation”. In addition, the “colony number, inhibition of proliferation (FIG. 8A)” value in data set [3] is reported as “significantly inhibit the proliferation”. Further, the “wound area, inhibition of migration (FIG. 9B)” value in data set [4] is recorded as “significantly inhibit the migration”. In addition, the “wound area, inhibition of migration (FIG. 9A)” value in data set [8] is “significantly inhibit the migration”.
